Laboratory results from patent US20250326755A1, “CYCLIC QUATERNARY AMMONIUM SALT COMPOUND, AND PREPARATION METHOD THEREFOR AND USE THEREOF” (YICHANG HUMANWELL PHARMACEUTICAL CO., LTD., priority 2022, published 2025).
Like-named read-outs stand apart in the source and are kept apart here.

What was measured:
sciatic nerve of the rat = assay type: in vivo, SD rats
Method: The experimental methods described in the following test examples were standard procedures unless otherwise specified. All experimental animals used in the following test examples were SD rats purchased from Hunan Slac Jingda Experimental Animal Co., Ltd. Other test materials, unless stated otherwise, were purchased from conventional biochemical reagent suppliers.
The compounds listed in Table 1 and levobupivacaine hydrochloride (positive control) were administered to three groups of rats fully acclimated to the experimental environment, with one rat per group.
Solution Preparation: 2 mg/ml Levobupivacaine Hydrochloride Injection: 2.670 ml of 7.5 mg/ml levobupivacaine hydrochloride injection (Batch No. 92S0702) was pipetted into a 10 ml volumetric flask. 0.9% NaCl solution was added until the meniscus was level with the calibration line, and the solution was inverted and mixed thoroughly, to prepare 2 mg/ml levobupivacaine hydrochloride injection. 2 mg/ml Example Compound Solution: 6.6 mg of the example compound was accurately weighed and dissolved in 3.3 ml of 0.9% NaCl solution to prepare a 2 mg/ml example compound solution.
Both the positive control and the example compound were administered to each rat at 2 mg/ml, with an administration volume of 5 ml/kg, in a single injection near the sciatic nerve of the rat. After the administration, the rat was placed on a preheated hot plate (50±0.1° C.) of an intelligent hot plate instrument. […] The maximum thermal latency was controlled at 60 s. […] Any urine or feces on the hot plate was promptly cleaned and dried before subsequent tests.
Thermal latency results were expressed as the maximum proportional effect (MPE), calculated using the following formula.
Wherein: B represented the basal thermal latency of the rats; P was the maximum thermal latency C was the observed thermal latency at the detection time point.
Measurements were considered invalid if the MPE was less than 50% of the maximum proportional effect. If two consecutive measurements yielded an MPE of less than […], the experiment was terminated.

[1] = system: rat subcutaneous infiltration model; experiment: Local anesthetic effect by subcutaneous infiltration, Von Frey needle stimulation of back skin; assay type: in vivo, SD rats; conditions: 1 mg/ml, 0.5 mL subcutaneous injection on the back, 10 rats
Method: After shaving and disinfecting the backs of SD rats (half male and half female) weighing 190-210 grams, a circle with a diameter of approximately 1.5 cm was drawn on one side of the exposed skin. 0.5 mL of a solution containing the drug was subcutaneously injected into the skin in the center. The solution, using physiological saline as the solvent, contained either 2 mg/ml bupivacaine hydrochloride or 1 mg/ml concentration of the compounds listed in Table 2 of the present application. Each group consisted of 10 rats. A Von Frey fiber with a 100-gram force was attached to a needle for local skin stimulation. One minute after drug administration, the rat's response to the stimulus was measured. Testing was conducted at 6 different points within the marked area of drug administration. Skin contraction, avoidance, and other behaviors following stimulation were observed and recorded. Three points in the center and three points around the circle were stimulated, and the number of skin contraction and avoidance behaviors was recorded as N6. […] Each compound was tested on 10 rats.

[2] = 2 mg/ml, 5 ml/kg, single injection near the sciatic nerve of the rat, hot plate 50±0.1° C.

SMILES	Duration/h (sciatic nerve of the rat; rat, in vivo) [h]	Onset Time/min (sciatic nerve of the rat; rat, in vivo) [min]	Duration/h [1] [h]	Onset Time/min [1] [min]	Duration/h (sciatic nerve of the rat; [2]) [h]	Onset Time/min (sciatic nerve of the rat; [2]) [min]
CCCC[N+]1(CCCCNc2ccccc2)CCCC[C@H]1C(=O)Nc1c(C)cccc1C (stereo partly drawn) [Compound of Example 1, (2S)-1-Butyl-2-((2,6-dimethylphenyl)carbamoyl)-1-(4-(phenylamino)butyl)piperidine bromide]	24 to 48	1	48 to 72	1		
CCCC[N+]1(CCCCNc2ccc(C)cc2)CCCC[C@H]1C(=O)Nc1c(C)cccc1C (stereo partly drawn) [Compound of Example 2, (2S)-1-Butyl-2-((2,6-dimethylphenyl)carbamoyl)-1-(4-(p-toluidino)butyl)piperidine bromide]			72 to 96	1	48 to 72	1
CCCC[N+]1(CCCCOc2ccccc2)CCCC[C@H]1C(=O)Nc1c(C)cccc1C (stereo partly drawn) [Compound of Example 4, (2S)-1-Butyl-2-((2,6-dimethylphenyl)carbamoyl)-1-(4-(phenoxy)butyl)piperidine bromide]	48 to 72	1	72 to 96	1		
CCCC[N+]1(CCCCOc2cc(F)ccc2N)CCCC[C@H]1C(=O)Nc1c(C)cccc1C (stereo partly drawn) [Compound of Example 6, (2S)-1-(4-(2-amino-5-fluorophenoxy)butyl)-1-butyl-2-((2,6-dimethylphenyl)carbamoyl) piperidine bromide]			48 to 72	1	24 to 48	1
CCCC[N+]1(CCCCCNc2ccccc2)CCCC[C@H]1C(=O)Nc1c(C)cccc1C (stereo partly drawn) [Compound of Example 7, (2S)-1-Butyl-2-((2,6-dimethylphenyl)carbamoyl)-1-(5-(phenylamino)pentyl)piperidine bromide]	24 to 48	2	48 to 72	2		
CCCC[N+]1(CCCCCN(C)c2ccccc2)CCCC[C@H]1C(=O)Nc1c(C)cccc1C (stereo partly drawn) [Compound of Example 8, (2S)-1-Butyl-2-((2,6-dimethylphenyl)carbamoyl)-1-(5-(methyl(phenyl)amino)pentyl)piperidine bromide]			48 to 72	1	24 to 48	1
CCCC[N+]1(CCCCCNc2ccc(C)cc2)CCCC[C@H]1C(=O)Nc1c(C)cccc1C (stereo partly drawn) [Compound of Example 9, (2S)-1-Butyl-2-((2,6-dimethylphenyl)carbamoyl)-1-(5-(p-toluylamino)pentyl)piperidine bromide]			48 to 72	1	24 to 48	1
CCCC[N+]1(CCCCCNc2ccc(F)cc2)CCCC[C@H]1C(=O)Nc1c(C)cccc1C (stereo partly drawn) [Compound of Example 10, (2S)-1-Butyl-2-((2,6-dimethylphenyl)carbamoyl)-1-(5-(p-fluorophenylamino)pentyl)piperidine bromide]			48 to 72	2		2
CCCC[N+]1(CCCCCN2CCn3ccnc3C2)CCCC[C@H]1C(=O)Nc1c(C)cccc1C (stereo partly drawn) [Compound of Example 11, (2S)-1-Butyl-1-(5-(5,6-dihydroimidazo[1,2-a]pyrazin-7(8H)-yl)pentyl)-2-((2,6-dimethylphenyl)carbamoyl)piperidine bromide]			48 to 72	1	24 to 48	1
CCCC[N+]1(CCCCCN2CCn3cccc3C2C)CCCC[C@H]1C(=O)Nc1c(C)cccc1C (stereo partly drawn) [Compound of Example 12, (2S)-1-Butyl-2-((2,6-dimethylphenyl)carbamoyl)-1-(5(1-methyl-3,4-dihydropyrrolo[1,2-a]pyrazin-2(1H)-yl)pentyl)piperidine bromide]			48 to 72	1	24 to 48	1
CCCC[N+]1(CCCCCN2CCn3cccc3C2c2ccccc2)CCCC[C@H]1C(=O)Nc1c(C)cccc1C (stereo partly drawn) [Compound of Example 13, (2S)-1-Butyl-2-((2,6-dimethylphenyl)carbamoyl)-1-(5-1-phenyl-3,4-dihydropyrrolo[1,2-a]pyrazin-2(1H)-yl)pentyl)piperidine bromide]			48 to 72	1	24 to 48	1
CCCC[N+]1(CCCCCOc2ccccc2)CCCC[C@H]1C(=O)Nc1c(C)cccc1C (stereo partly drawn) [Compound of Example 14, (2S)-1-Butyl-2-((2,6-dimethylphenyl)carbamoyl)-1-(5-(phenoxy)pentyl)piperidine bromide]	24 to 48	2	48 to 72	2		
CCCC[N+]1(CCCCCOc2cccc(C)c2)CCCC[C@H]1C(=O)Nc1c(C)cccc1C (stereo partly drawn) [Compound of Example 15, (2S)-1-Butyl-2-((2,6-dimethylphenyl)carbamoyl)-1-(5-(m-tolyloxy)pentyl)piperidine bromide]			48 to 72	1	24 to 48	1
CCCC[N+]1(CCCCCOc2cc(F)ccc2N)CCCC[C@H]1C(=O)Nc1c(C)cccc1C (stereo partly drawn) [Compound of Example 16, (2S)-1-(5-(2-amino-5-fluorophenoxy)pentyl)-1-butyl-2-((2,6-dimethylphenyl)carbamoyl)piperidine bromide]			48 to 72	1	24 to 48	1
CCCC[N+]1(CCC(C)CCNc2ccc(F)cc2)CCCC[C@H]1C(=O)Nc1c(C)cccc1C (stereo partly drawn) [Compound of Example 18, (2S)-1-Butyl-2-((2,6-dimethylphenyl)carbamoyl)-1-(5-(((4-fluorophenyl)amino)-3-methylpentyl)piperidine bromide]			24 to 28	2	17	2
CCCC[N+]1(CCCCOc2ccc(F)cc2)CCCC[C@H]1C(=O)Nc1c(C)cccc1C (stereo partly drawn) [Compound of Example 24, (2S)-1-Butyl-2-((2,6-dimethylphenyl)carbamoyl)-1-(4-(4-fluorophenoxy)butyl)piperidine bromide]			48 to 72	1		1
CCCC[N+]1(CCCCOc2cccc(F)c2)CCCC[C@H]1C(=O)Nc1c(C)cccc1C (stereo partly drawn) [Compound of Example 26, (2S)-1-Butyl-2-((2,6-dimethylphenyl)carbamoyl)-1-(4-(3-fluorophenoxy)butyl)piperidine bromide]			48 to 72	1	24 to 42	1
CCCC[N+]1(CCCCOc2cccc(C#N)c2)CCCC[C@H]1C(=O)Nc1c(C)cccc1C (stereo partly drawn) [Compound of Example 27, (2S)-1-Butyl-1-(4-(3-cyanophenoxy)butyl)-2-((2,6-dimethylphenyl)carbamoyl)piperidine bromide]			48 to 72	1	24 to 48	1
CCCC[N+]1(CCCCOc2cccc(C(F)(F)F)c2)CCCC[C@H]1C(=O)Nc1c(C)cccc1C (stereo partly drawn) [Compound of Example 28, (2S)-1-Butyl-2-((2,6-dimethylphenyl)carbamoyl)-1-(4-(3-(trifluoromethyl)phenoxy)butyl) piperidine bromide]			48 to 72	1	24 to 48	1
CCCC[N+]1(CCCCOc2ccc(C)cc2)CCCC[C@H]1C(=O)Nc1c(C)cccc1C (stereo partly drawn) [Compound of Example 31, (2S)-1-Butyl-2-((2,6-dimethylphenyl)carbamoyl)-1-(4-(p-tolyloxy)butyl)piperidine bromide]			48 to 72	1	24 to 30	1
